According to the supplement of paper PMC4862054:

Legend:
Assay in all cases: normalised response (% of control), CellTiter-Glo; higher = more viable cells (100 = DMSO, 0 = benzethonium chloride kill control)
Conditions in all cases: incubation time: 72 h
CAL-51 = test system: CAL-51
Procedure, shortened: (§1)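 Values are normalised signals, each belonging to one concentration of the series. Breast cancer cells (20 µl suspension) were seeded into 384-well plates with compound at 5 concentrations in 10-fold steps over a compound-specific 10,000-fold range and incubated 72 h. Readouts were CellTox Green fluorescence (485/520 nm), then CellTiter-Glo luminescence after 10 min at room temperature, with each plate set to 0.1 % DMSO as 100 and a positive kill control as 0.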

MDA-MB-468 = test system: MDA-MB-468
Procedure, shortened: as §1

CAL-148 = test system: CAL-148
Procedure, shortened: as §1

MDA-MB-231 = test system: MDA-MB-231
Procedure, shortened: as §1

MFM-223 = test system: MFM-223
Procedure, shortened: as §1

CAL-85-1 = test system: CAL-85-1
Procedure, shortened: as §1

Hs578T = test system: Hs578T
Procedure, shortened: as §1

BT-474 = test system: BT-474
Procedure, shortened: as §1

HCC1937 = test system: HCC1937
Procedure, shortened: as §1

HCC1143 = test system: HCC1143
Procedure, shortened: as §1

MDA-MB-436 = test system: MDA-MB-436
Procedure, shortened: as §1

BT-549 = test system: BT-549
Procedure, shortened: as §1

CAL-120 = test system: CAL-120
Procedure, shortened: as §1

MDA-MB-453 = test system: MDA-MB-453
Procedure, shortened: as §1

Row | Compound | normalised response (CAL-51) [%] | normalised response (MDA-MB-468) [%] | normalised response (CAL-148) [%] | normalised response (MDA-MB-231) [%] | normalised response (MFM-223) [%] | normalised response (CAL-85-1) [%] | normalised response (Hs578T) [%] | normalised response (BT-474) [%] | normalised response (HCC1937) [%] | normalised response (HCC1143) [%] | normalised response (MDA-MB-436) [%] | normalised response (BT-549) [%] | normalised response (CAL-120) [%] | normalised response (MDA-MB-453) [%]
1 | CC(C)C[C@H](NC(=O)[C@@H](COC(C)(C)C)NC(=O)[C@H](Cc1ccc(O)cc1)NC(=O)[C@H](CO)NC(=O)[C@H](Cc1c[nH]c2ccccc12)NC(=O)[C@H](Cc1cnc[nH]1)NC(=O)[C@@H]1CCC(=O)N1)C(=O)N[C@@H](CCCNC(=N)N)C(=O)N1CCC[C@H]1C(=O)NNC(N)=O [Goserelin] (1000 nM) | 100 | 94.3 | 93.1 | 100 | 99.6 | 98.2 | 99.4 | 101 | 98.2 | 92.3 | 93.8 | 98.6 | 106 | 106
2 | CC(=O)[C@]1(O)Cc2c(O)c3c(c(O)c2[C@@H](O[C@H]2C[C@H](N)[C@H](O)[C@H](C)O2)C1)C(=O)c1ccccc1C3=O [Idarubicin] (100 nM) | 42.6 | 64.5 | 63.5 | 94.7 | 117 | 91 | 82.5 | 92.3 | 98 | 102 | 65.7 | 62.6 | 99.7 | 140
3 | C/C(=C\c1csc(C)n1)[C@@H]1C[C@@H]2O[C@]2(C)CCC[C@H](C)[C@H](O)[C@@H](C)C(=O)C(C)(C)[C@@H](O)CC(=O)N1 [Ixabepilone] (100 nM) | 30.6 | 29.1 | 97.8 | 96.9 | 105 | 99.5 | 104 | 103 | 102 | 97.5 | 101 | 23.6 | 95.8 | 109
4 | C=CCn1c(=O)c2cnc(Nc3ccc(N4CCN(C)CC4)cc3)nc2n1-c1cccc(C(C)(C)O)n1 [MK1775] (1000 nM) | 18.5 | 43.4 | 12.2 | 23.6 | 41.2 | 18.7 | 30 | 33.3 | 39.6 | 43.2 | 30.8 | 21.2 | 47.3 | 50.1
5 | CO[C@@H]1[C@H](N(C)C(=O)c2ccccc2)C[C@H]2O[C@]1(C)n1c3ccccc3c3c4c(c5c6ccccc6n2c5c31)C(=O)NC4 [Midostaurin] (1000 nM) | 20.8 | 26.9 | 80.5 | 50.3 | 75.8 | 85.8 | 26.1 | 52.1 | 63.7 | 55.9 | 77.5 | 32.6 | 54 | 120
6 | CO[C@@]12[C@H](COC(N)=O)C3=C(C(=O)C(C)=C(N)C3=O)N1C[C@@H]1N[C@@H]12 [Mitomycin C] (1000 nM) | 60.2 | 86 | 90.9 | 97.4 | 90.1 | 95.6 | 102 | 90.2 | 95.2 | 99.4 | 88.3 | 65.7 | 94.1 | 97.9
7 | CCNC(=O)c1noc(-c2cc(C(C)C)c(O)cc2O)c1-c1ccc(CN2CCOCC2)cc1 [NVP-AUY922] (100 nM) | 14.8 | 28.7 | 27.6 | 24.6 | 43.4 | 20.5 | 39.1 | 25 | 28.7 | 36.8 | 44.6 | 41.1 | 47.5 | 32.3
8 | CC1(C)CCC(c2ccc(Cl)cc2)=C(CN2CCN(c3ccc(C(=O)NS(=O)(=O)c4ccc(N[C@H](CCN5CCOCC5)CSc5ccccc5)c(S(=O)(=O)C(F)(F)F)c4)cc3)CC2)C1 [Navitoclax] (1000 nM) | 90.8 | 82.8 | 78.5 | 49.2 | 85.8 | 90 | 93.1 | 58.1 | 83.4 | 82.9 | 95.3 | 92.5 | 67.8 | 80.9
9 | Cc1cn(-c2cc(NC(=O)c3ccc(C)c(Nc4nccc(-c5cccnc5)n4)c3)cc(C(F)(F)F)c2)cn1 [Nilotinib] (1000 nM) | 70.9 | 93 | 84.4 | 96.5 | 97.3 | 102 | 105 | 92.9 | 96.5 | 94 | 103 | 109 | 100 | 105
10 | O=C(CCCCCCC(=O)Nc1ccccc1)NO [Vorinostat] (1000 nM) | 72.2 | 69.4 | 90.6 | 85.4 | 91.6 | 93.7 | 95.8 | 89.4 | 85.2 | 90.2 | 89.6 | 100 | 85.9 | 61.2
